As a reminder, the IC50 is the midpoint of a concentration-inhibition curve. The EC50 is the midpoint of the concentration-response curve.

Drawing on patent publication US10570116B2, “1,4-dicarbonyl-piperidyl derivatives” (Merck Patent GmbH, priority 2015, dated 2020), this text covers IC50 and EC50 for 18 compounds.

The target of experiment [1] is TNKS2 (Homo sapiens (Human), UniProt Q9H2K2). As to the kind of experiment: biochemical. It counts as biochemical. As to conditions: GST-tagged Tnks-2 (873-1166 aa); read-out: IC50 [M] TNKS2 ELISA.
Experiment [2] relates to Tankyrases. Nature of the experiment: Measurement of cellular inhibition of Tankyrase (Axin2 level, Luminex based assay, DLD1 cells). It counts as cell-based. As to conditions: increase of Axin2 level, 24 hours, read-out: EC50 [M] TNKS cellular assay.
The target in experiment [3] is TNKS1 (Homo sapiens (Human), UniProt O95271). As to the kind of experiment: biochemical. The experiment is classed as biochemical. As to conditions: GST-tagged Tnks-1 (1023-1327 aa); read-out: IC50 [M] TNKS1 ELISA. A general note: In an ELISA, binding on a coated surface is turned into a signal by an enzyme label.

Take `C[C@H](CC(=O)N1CCC(C(=O)c2cnn(C)c2)CC1)Cc1cc2ccccc2c(=O)[nH]1` [Compound C50, 3-{(S)-2-Methyl-4-[4-(1-methyl-1H-pyrazole-4-carbonyl)-piperidin-1-yl]-4-oxo-butyl}-2H-isoquinolin-1-one]: the IC50 in experiment [1] came out at 2.4e-10 M; in experiment [3] it was 4.4e-10 M. In addition, the EC50 in experiment [2] came to 6.8e-10 M.

As to `COc1ccc(C(=O)C2CCN(C(=O)COCc3nc4ccccc4c(=O)[nH]3)CC2)cn1` [Compound C25, 2-{2-[4-(6-Methoxy-pyridine-3-carbonyl)-piperidin-1-yl]-2-oxo-ethoxymethyl}-3H-quinazolin-4-one], the IC50 in experiment [1] worked out at 1.2e-08 M; in experiment [3], 3.6e-08 M. The EC50 in experiment [2] is 6.4e-08 M.

For the compound `COC(=O)c1ccc(C(=O)C2CCN(C(=O)CC(C)(C)Cc3nc4ccccc4c(=O)[nH]3)CC2)cc1C` [Compound C38, 4-{1-[3,3-Dimethyl-4-(4-oxo-3,4-dihydro-quinazolin-2-yl)-butyryl]-piperidine-4-carbonyl}-2-methyl-benzoic Acid Methyl Ester], the IC50 in experiment [1] turned out to be 3.2e-10 M; in experiment [3] it was 5.8e-10 M. Moreover, the EC50 in experiment [2] stood at 9.9e-10 M.

`Cc1cc(C(=O)C2CCN(C(=O)CC(C)(C)Cc3nc4c(C)cccc4c(=O)[nH]3)CC2)ccc1C(=O)O` [Compound C41, 4-{1-[3,3-Dimethyl-4-(8-methyl-4-oxo-3,4-dihydro-quinazolin-2-yl)-butyryl]-piperidine-4-carbonyl}-2-methyl-benzoic Acid]: the IC50 turned out to be 8.8e-10 M in experiment [1] and 5.9e-10 M in experiment [3]. Besides, the EC50 in experiment [2] is 1.1e-08 M.

On to `COc1ccc(C(=O)C2CCN(C(=O)COCc3nc4c(F)cc(F)cc4c(=O)[nH]3)CC2)cc1` [Compound C26, 6,8-Difluoro-2-{2-[4-(4-methoxy-benzoyl)-piperidin-1-yl]-2-oxo-ethoxymethyl}-3H-quinazolin-4-one], for which the IC50 was 3e-09 M in experiment [1] and 7.7e-09 M in experiment [3]. In experiment [2], the EC50 amounted to 2.3e-08 M.

In the case of `Cn1cc(C(=O)C2CCN(C(=O)C(C)(C)CCc3nc4ccccc4c(=O)[nH]3)CC2)cn1` [Compound C13, 2-{3,3-Dimethyl-4-[4-(1-methyl-1H-pyrazole-4-carbonyl)-piperidin-1-yl]-4-oxo-butyl}-3H-quinazolin-4-one], the IC50 in experiment [1] was 4.2e-07 M; in experiment [3] it was 6.1e-07 M. In experiment [2], the EC50 worked out at 2.3e-06 M.

For the compound `COc1ccc(C(=O)C2CCN(C(=O)CCC(C)(C)c3nc4ccccc4c(=O)[nH]3)CC2)cc1` [Compound C15, 2-{4-[4-(4-Methoxy-benzoyl)-piperidin-1-yl]-1,1-dimethyl-4-oxo-butyl}-3H-quinazolin-4-one], the IC50 in experiment [1] is 5e-09 M; in experiment [3] it was 9.2e-09 M. Besides, the EC50 in experiment [2] was determined as 6.2e-08 M.

Consider `COc1ccc(C(=O)C2CCN(C(=O)CC(C)(C)Cc3nc4c(ccn4C)c(=O)[nH]3)CC2)cn1` [Compound C16, 2-{4-[4-(6-Methoxy-pyridine-3-carbonyl)-piperidin-1-yl]-2,2-dimethyl-4-oxo-butyl}-7-methyl-3,7-dihydro-pyrrolo[2,3-d]pyrimidin-4-one], for which the IC50 was found to be 4.1e-10 M in experiment [1] and 6.1e-10 M in experiment [3]. Besides, in experiment [2], the EC50 turned out to be 4.1e-09 M.

Consider `COC(=O)c1ccc(C(=O)C2CCN(C(=O)CC(C)(C)Cc3nc4ccccc4c(=O)[nH]3)CC2)cc1` [Compound C32, 4-{1-[3,3-Dimethyl-4-(4-oxo-3,4-dihydro-quinazolin-2-yl)-butyryl]-piperidine-4-carbonyl}-benzoic Acid Methyl Ester], for which the IC50 in experiment [1] stood at 5.6e-10 M; in experiment [3], 6.8e-10 M. Besides, in experiment [2], the EC50 stood at 1.1e-07 M.

As for `Cc1cc(F)cc2c(=O)[nH]c(C[C@H](C)CC(=O)N3CCC(C(=O)c4cccc(C(=O)O)c4)CC3)nc12` [Compound C47, 3-{1-[(S)-4-(6-Fluoro-8-methyl-4-oxo-3,4-dihydro-quinazolin-2-yl)-3-methyl-butyryl]-piperidine-4-carbonyl}-benzoic Acid], the half-inhibitory concentration (IC50) is 2.2e-10 M in experiment [1] and 3.5e-10 M in experiment [3]. Also, the EC50 in experiment [2] amounted to 3e-09 M.

As for `Cc1cc(F)cc2c(=O)[nH]c(C[C@@H](C)CC(=O)N3CCC(C(=O)c4cccc(C(=O)O)c4)CC3)nc12` [Compound C46, 3-{1-[(R)-4-(6-Fluoro-8-methyl-4-oxo-3,4-dihydro-quinazolin-2-yl)-3-methyl-butyryl]-piperidine-4-carbonyl}-benzoic Acid], the IC50 in experiment [1] was 2.8e-09 M; in experiment [3], 8.2e-09 M. For the same compound, in experiment [2], the EC50 worked out at 1e-05 M.

On to `COc1ccc(C(=O)C2CCN(C(=O)COCc3nc4c(F)cc(F)cc4c(=O)[nH]3)CC2)cn1` [Compound C28, 6,8-Difluoro-2-{2-[4-(6-methoxy-pyridine-3-carbonyl)-piperidin-1-yl]-2-oxo-ethoxymethyl}-3H-quinazolin-4-one], for which the IC50 was determined as 1.2e-08 M in experiment [1] and 3.4e-08 M in experiment [3]. In experiment [2], the EC50 came out at 1e-07 M.

Regarding `C[C@@H](CC(=O)N1CCC(C(=O)c2cnn(C)c2)CC1)Cc1cc2ccccc2c(=O)[nH]1` [Compound C51, 3-{(R)-2-Methyl-4-[4-(1-methyl-1H-pyrazole-4-carbonyl)-piperidin-1-yl]-4-oxo-butyl}-2H-isoquinolin-1-one], the IC50 came to 7.2e-10 M in experiment [1] and 1e-09 M in experiment [3]. Also, the EC50 in experiment [2] was 1.2e-08 M.

Take `Cn1cc(C(=O)C2CCN(C(=O)COCc3nc4ccccc4c(=O)[nH]3)CC2)cn1` [Compound C24, 2-{2-[4-(1-Methyl-1H-pyrazole-4-carbonyl)-piperidin-1-yl]-2-oxo-ethoxymethyl}-3H-quinazolin-4-one]: the IC50 in experiment [1] was 1.2e-08 M; in experiment [3] it was 2.7e-08 M. Further, the EC50 in experiment [2] came out at 1e-07 M.

As for `CC(C)(CC(=O)N1CCC(C(=O)c2cccc(C(=O)O)c2)CC1)Cc1cc2ccccc2c(=O)[nH]1` [Compound C53, 3-{1-[3,3-Dimethyl-4-(1-oxo-1,2-dihydro-isoquinolin-3-yl)-butyryl]-piperidine-4-carbonyl}-benzoic Acid], the IC50 in experiment [1] was found to be 6.9e-10 M; in experiment [3], 1.1e-09 M. Also, the EC50 in experiment [2] is 8.7e-07 M.

In the case of `Cn1cc(C(=O)C2CCN(C(=O)CC(C)(C)Cc3nc4ccccc4c(=O)[nH]3)CC2)cn1` [Compound C1, 2-{2,2-Dimethyl-4-[4-(1-methyl-1H-pyrazole-4-carbonyl)-piperidin-1-yl]-4-oxo-butyl}-3H-quinazolin-4-one], the IC50 in experiment [1] is 3.7e-10 M; in experiment [3], 5.7e-10 M. Further, the EC50 in experiment [2] was 4.5e-09 M.

For the compound `Cn1cc(C(=O)C2CCN(C(=O)CC(C)(C)Cc3cc4ccccc4c(=O)[nH]3)CC2)cn1` [Compound C49, 3-{2,2-Dimethyl-4-[4-(1-methyl-1H-pyrazole-4-carbonyl)-piperidin-1-yl]-4-oxo-butyl}-2H-isoquinolin-1-one], the IC50 was 2.1e-10 M in experiment [1] and 3e-10 M in experiment [3]. The EC50 in experiment [2] came out at 1.3e-09 M.

On to `COC(=O)c1cccc(C(=O)C2CCN(C(=O)CC(C)(C)Cc3nc4c(C)cccc4c(=O)[nH]3)CC2)c1` [Compound C36, 3-{1-[3,3-Dimethyl-4-(8-methyl-4-oxo-3,4-dihydro-quinazolin-2-yl)-butyryl]-piperidine-4-carbonyl}-benzoic acid methyl ester], for which the IC50 worked out at 2.1e-09 M in experiment [1] and 7.9e-10 M in experiment [3]. In addition, the EC50 in experiment [2] turned out to be 3.4e-09 M.
